For assay [1], the system named is SARS-CoV-2. Further details: method as in PMID 32198291. The note with it: Calu-3 cell line; read-out: EC50 (viral RNA copies); cited from earlier work.
Assay [2] deals with 3CL^Pro. Conditions: read-out: IC50 against 3CL^Pro; lead compound; cited from earlier work.
For assay [3], the system named is SARS-CoV-2. Conditions: co-administration of PF07321332 and Ritonavir, oral, phase II/III trials; cited from earlier work.
Assay [4] concerns the target SARS-CoV-2 3CL^Pro (Severe acute respiratory syndrome coronavirus 2, UniProt P0DTD1). The assay is described as follows: FRET-based 3CLPro enzymatic inhibition assay (SARS-CoV-2). Type of assay: biochemical. The note with it: 0.2 μM enzyme, mean ± SE, n = 3.
Assay [5] has as its target SARS-CoV 3CL^Pro (Severe acute respiratory syndrome coronavirus, UniProt P0C6X7). The assay is described as follows: biochemical.
Assay [6] deals with SARS-CoV-2. Put plainly: SARS-CoV-2 infection assay in Vero E6 cells, viral RNA by qPCR. The note with it: final concentration 10 μM, initial screen. Type of assay: cell-based.

On to `CC(C)(C)OC(=O)Nc1cccn([C@@H](CC2CC2)C(=O)N[C@@H](C[C@@H]2CCNC2=O)C(=O)C(=O)NCc2ccccc2)c1=O` [13b], for which, in assay [1], the EC50 was 4000 to 5000 nM. Besides, in assay [2], the half-inhibitory concentration (IC50) is 670 ± 180 nM.

As for `CC(C)(C)[C@H](NC(=O)C(F)(F)F)C(=O)N1C[C@H]2[C@@H]([C@H]1C(=O)N[C@H](C#N)C[C@@H]1CCNC1=O)C2(C)C` [PF-07321332], the “Reduction of overall hospitalizations” value in assay [3] is reported as 89%.

As for `CC(C)C[C@H](NC(=O)[C@@H](NC(=O)C1CCCCC1)C(C)C)C(=O)N[C@H](C=O)C[C@@H]1CCCNC1=O` [TPM1], the 50% inhibitory concentration (IC50) in assay [4] amounted to 241 ± 0.5 nM; in assay [5], 479 ± 29 nM.

Consider `CC(C)C[C@H](NC(=O)[C@@H](NC(=O)c1ccco1)C(C)C)C(=O)N[C@H](C=O)C[C@@H]1CCCNC1=O` [TPM5], for which the IC50 turned out to be 59 ± 2 nM in assay [4] and 134 ± 1 nM in assay [5].

Consider `COc1ccc(/C=C/C(=O)N[C@H](C(=O)N[C@@H](CC(C)C)C(=O)N[C@H](C=O)C[C@@H]2CCCNC2=O)C(C)C)cc1` [TPM10], for which the half-inhibitory concentration (IC50) in assay [4] came to 80 ± 2 nM; in assay [5] it was 231 ± 4 nM.

For the compound `CC(C)C[C@H](NC(=O)[C@H](Cc1ccccc1)NC(=O)/C=C/c1ccccc1)C(=O)N[C@H](C=O)C[C@@H]1CCCNC1=O` [TPM16], the figures for the IC50 in assay [4] and in assay [5] were 166 ± 2 nM and 232 ± 1 nM, respectively. Besides, in assay [6], the “Reduction of RNA loads of SARS-CoV-2 (relative level to DMSO control)” value is 10^3.

For `CC[C@H](C)[C@H](NC(=O)/C=C/c1ccccc1)C(=O)N[C@H](C=O)C[C@@H]1CCCNC1=O` [TPM19], the IC50 came out at 1060 ± 31 nM in assay [4] and 1220 ± 312 nM in assay [5]. Besides, the “Reduction of RNA loads of SARS-CoV-2 (relative level to DMSO control)” value in assay [6] is on record as 10^3.

Values taken from paper PMC8878928 (International Journal of Molecular Sciences, 2022).
